The source of these data is article PMC5216877, “Exploring conformational equilibria of a heterodimeric ABC transporter” (eLife, 2017).

The target of assay [1] is T1, TM287/288 (Thermotoga maritima, UniProt Q9WYC3+Q9WYC4, C28S/C496S/C519S/C558S/C73S). Briefly: Inhibition of ATPase activity of TM287/288 by vanadate and nucleotides. The following applies: for IC50: 500 µM ATP; for Ki: calculated from IC50 and Km. It counts as biochemical. The method, then: Nucleotide binding and hydrolysis follow a complex mechanism in heterodimeric ABC exporters, due to the existence of a degenerate and a consensus site in the NBDs. […] Using the relation IC50=Ki(1+[S]/Km), Ki values for the respective nucleotides were determined (Table 2). […] It is well established that ATPγS is slowly hydrolyzed by ATPases, as for example the F1Fo-ATPase ([Turina and Capaldi, 1994]). […] It is reasonable to assume that TM287/288 is as well capable of slow ATPγS hydrolysis. In addition, we tested whether TM287/288 hydrolyzes AMP-PNP. In contrast to ATPγS, hydrolysis of AMP-PNP releases Pi, which can be detected by the molybdate/malachite green method.
(§1) in which f corresponds to the ATPase activity at the respective inhibitor concentration divided by the ATPase activity in the absence of inhibitor normalized to 100%, y0 corresponds to the residual activity at infinite inhibitor concentration, a corresponds to the maximal degree of inhibition (a+y0=100%) and x corresponds to the inhibitor concentration.
(§2) Ki values were calculated according to the formula Ki=IC50/(1+[S]/Km)
(§3) IC50 and Km values were obtained from data fitting as outlined above.
(§4) Standard errors for the Ki values were calculated by error propagation: σKi = (Km/Km+[S])^2 σIC502+ ([S]IC50/(Km+[S])^2)^2 σKm2
(§5) in which the σIC50 and σKm are standard errors obtained from data fitting in SigmaPlot and σKi is the standard error for Ki .

Assay [2] has as its system TM287/288. Briefly: DEER two-Gaussian fit of IF/OF populations, wildtype TM287/288. Also noted: species or system Thermotoga maritima. The conditions noted are these: estimated errors 10%. The method, then:
All nucleotides and nucleotide analogs used in this study were added at saturating conditions well above their Ki values (Table 2). […] Therefore, the IF/OF fractions detected in the sample reflect the average life time that the nucleotide-bound transporter spends in either conformation. To rank the nucleotides in terms of their ability to support the transition to the OF conformation, we used three representative pairs in the wildtype transporter and the E-to-Q mutant: one in the extracellular region (50^TM287/271^TM287), one in the intracellular region (131^TM288/248^TM288) of the TMDs, and one in the NBDs (460^TM287/363^TM288) for which the distance peaks corresponding to the two states were distinguishable. A two-Gaussian fit of the DEER traces was performed to obtain the area of the corresponding IF and OF distance peaks (Figure 5—source data 1). The rank of nucleotides with respect to increasing fractions of the OF populations (Figure 5A) was: ADP-Mg ≈ AMP-PNP-Mg < ATP-EDTA < ATPγS-Mg < ATP-Mg < ATP-Vi-Mg. The order is similar for the wildtype and E-to-Q mutant transporter. However, the OF state is in general more populated in the E-to-Q mutant, which is best explained by an alteration of the energy profile caused by the mutation. This notion is best appreciated for ATP-EDTA and ATP-Mg, which could trigger an almost complete switch in the molecular ensemble of the E-to-Q mutant (Figure 5B).
The labeling efficiency of the double cysteine mutants of the transporters solubilized in detergent was measured at 25°C using an X-band Miniscope 400 EPR spectrometer (Magnettech by Freiberg Instrument). Samples were loaded into glass capillaries with the inner diameter of 0.9 mm and spectra were measured with 14 mT field sweep, 0.15 mT modulation amplitude, 2.5 mW microwave power. The calculated spin labeling efficiencies of the twelve mutants ranged between 70–90% (the second integral of the EPR spectra was calculated with the software available at spintoolbox.com). The high degree of labeling is correlated with the 0.3–0.4 modulation depths of all Q-band DEER traces presented. For DEER measurements, 10% v/v D8- glycerol was added prior to snap freezing. The range of final protein concentrations was 12 to 41 µM. 40 µL of sample were loaded in quartz tubes with 3 mm outer diameter. If not stated differently, samples were incubated at 25°C for 10 min (TM287/288 and MsbA) or 15 min (BmrCD) and snap frozen in liquid nitrogen. To study the effect of high physiological temperatures on the frozen dynamics of the transporter, samples were loaded in the quartz tubes, incubated for 3 min at 80°C on a heat block and snap frozen in a mixture of isopentane and liquid nitrogen to minimize the freezing time. […] The nucleotide analogs AMP-PNP-Mg and ATPγS-Mg (2.5 mM) were also prepared in the presence of 2.5 mM MgCl2. In case of ADP-Mg, 2.5 mM ADP and 2.5 mM MgCl2 were added.
Double electron-electron resonance (DEER) measurements were performed at 50 K on a Bruker ELEXSYS E580Q-AWG (arbitrary wave generator) dedicated pulse Q-band spectrometer equipped with a 150 W TWT amplifier. A 4-pulse DEER sequence with rectangular, non-selective observer and pump pulses of 14 or 16 ns length (depending on the available B1 at the sample) with 100 MHz frequency separation was used ([Polyhach et al., 2012]). Due to the coherent nature of the AWG generated pulses, a four-step phase cycling (0 – π/2 - π – 3/2π) of the pump π pulse was performed to remove unwanted effects of running echoes from the DEER trace. The evaluation of the DEER data was performed using DeerAnalysis2015 ([Jeschke et al., 2006]). The background of the primary DEER traces was corrected using stretched exponential functions with homogeneous dimensions of 1.5 to 3 for different samples. A model-free Tikhonov regularization was used to extract distance distributions from the background corrected form factors. […]

A further assay deals with ABCB1. Set-up: method as in Siarheyeva et al., 2010. The conditions noted are these: ref Siarheyeva et al., 2010; cited from earlier work.
The target in the next assay is T2, BmrCD (Bacillus subtilis, UniProt O07549+O07550, C154A/C256A/C351A).
T2 construct: made in house; host or cells: E. coli MC1061
Briefly: Inhibition of ATPase activity of BmrCD by nucleotide analogs. It counts as biochemical. The method, then: as §1, §2, §3, §4, §5

The target of assay [3] is T1, TM287/288. Kind of assay: ATPase activity of detergent-purified wildtype TM287/288 (molybdate/malachite green phosphate detection). It counts as biochemical.
The test system of assay [4] is TM287/288. Briefly: Hoechst 33342 stimulated ATPase activity of TM287/288 reconstituted into proteoliposomes. It counts as biochemical, Thermotoga maritima. The following applies: 50, 100 and 150 µM Hoechst 33342, 50°C, wildtype and spin-labeled mutants, maximal at 50 or 100 µM, bell-shaped. On the procedure:
To carry out DEER measurements in a lipidic environment (pair 131^TM288/248^TM288) as well as for the investigation of drug-stimulated ATPase activity of all pairs, spin-labeled TM287/288 was reconstituted into proteoliposomes consisting of E. coli polar lipids and egg phosphatidylcholine mixed at a ratio of 3:1 in 50 mM K-HEPES pH 7.0 as described elsewhere ([Hürlimann et al., 2016]; [Geertsma et al., 2008]). […] Reconstituted TM287/288_E517Q^TM288 was used for background subtraction.

[5] abbreviates: TM287/288, 50°C, read-out: IC50.
The mark [6] stands for this setting: spin-labeled pair 50^TM287-271^TM287 WT.
[7] abbreviates: spin-labeled pair 131^TM288-248^TM288 WT.
Where [8] appears, read: spin-labeled pair 460^TM287-363^TM288 WT.
Setting [9] is: wildtype TM287/288, ATP-Mg + 2.5 mM EDTA, 50°C, detergent.
The mark [10] stands for this setting: wildtype TM287/288, ATP-Mg + 1 mM vanadate, 50°C, detergent.

Molecules are shown by their SMILES. Like-named read-outs stand apart in the source and are kept apart here.

T2 sequence (O07550 whole entry): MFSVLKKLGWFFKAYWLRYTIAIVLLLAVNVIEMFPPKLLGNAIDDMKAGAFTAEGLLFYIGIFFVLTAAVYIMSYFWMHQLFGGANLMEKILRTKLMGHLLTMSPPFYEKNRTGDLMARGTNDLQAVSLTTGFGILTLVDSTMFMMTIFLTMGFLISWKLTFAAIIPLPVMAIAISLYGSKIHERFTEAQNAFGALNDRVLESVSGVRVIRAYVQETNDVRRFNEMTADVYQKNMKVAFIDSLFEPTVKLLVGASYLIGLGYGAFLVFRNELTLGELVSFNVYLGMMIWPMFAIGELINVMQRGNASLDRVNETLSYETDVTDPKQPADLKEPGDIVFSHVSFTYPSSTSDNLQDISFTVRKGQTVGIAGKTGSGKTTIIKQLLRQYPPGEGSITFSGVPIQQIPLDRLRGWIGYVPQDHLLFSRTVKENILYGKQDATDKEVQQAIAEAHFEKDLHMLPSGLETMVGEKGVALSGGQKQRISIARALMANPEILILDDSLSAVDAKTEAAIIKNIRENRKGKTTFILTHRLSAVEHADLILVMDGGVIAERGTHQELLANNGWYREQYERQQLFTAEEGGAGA
T2 sequence (O07549 whole entry C154A/C256A/C351A): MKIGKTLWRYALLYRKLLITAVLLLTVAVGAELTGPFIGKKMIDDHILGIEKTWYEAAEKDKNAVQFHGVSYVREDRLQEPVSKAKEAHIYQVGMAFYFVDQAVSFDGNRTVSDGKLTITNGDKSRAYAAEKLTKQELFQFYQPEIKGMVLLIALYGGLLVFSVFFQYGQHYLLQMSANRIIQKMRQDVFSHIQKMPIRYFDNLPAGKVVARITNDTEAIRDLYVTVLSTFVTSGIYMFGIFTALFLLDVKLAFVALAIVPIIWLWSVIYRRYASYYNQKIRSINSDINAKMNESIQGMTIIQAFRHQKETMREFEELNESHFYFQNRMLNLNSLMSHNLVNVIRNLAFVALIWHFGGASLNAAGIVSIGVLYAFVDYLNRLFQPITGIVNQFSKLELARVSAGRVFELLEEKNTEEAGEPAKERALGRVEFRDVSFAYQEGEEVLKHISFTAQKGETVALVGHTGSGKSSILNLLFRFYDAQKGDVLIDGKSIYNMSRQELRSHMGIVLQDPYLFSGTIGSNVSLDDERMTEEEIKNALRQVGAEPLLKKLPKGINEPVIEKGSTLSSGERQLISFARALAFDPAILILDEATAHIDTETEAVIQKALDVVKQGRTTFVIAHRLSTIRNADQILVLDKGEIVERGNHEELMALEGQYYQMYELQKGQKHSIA

As a reminder, the IC50 is the concentration that inhibits the measured activity by half. Broadly, the Ki is a measure of affinity in units of concentration, obtained from inhibition or displacement. For `Nc1ncnc2c1ncn2[C@@H]1O[C@H](COP(=O)(O)OP(=O)(O)O)[C@@H](O)[C@H]1O` [ADP], the half-maximal inhibitory concentration (IC50) was determined as 505 ± 21 µM at TM287/288 [1] (TM287/288, 25°C, read-out: IC50) and 681 ± 160 µM on TM287/288 [1] (setting [5]). Also, the inhibitory constant (Ki) on TM287/288 [1] (TM287/288, 25°C, read-out: Ki) was 3.28 ± 0.44 µM; at TM287/288 [1] (TM287/288, 50°C, read-out: Ki) it was 10.4 ± 2.9 µM. For the same molecule, the IF frac is listed as 90.1% in the assay on TM287/288 [2] (setting [6]), 100% in the assay on TM287/288 [2] (setting [7]) and 82% with TM287/288 [2] (setting [8]). Also, the OF frac in the assay with TM287/288 [2] (setting [6]) is reported as 9.9%; with TM287/288 [2] (setting [7]) it was 0%; in the assay with TM287/288 [2] (setting [8]), 18%.
Regarding `Nc1ncnc2c1ncn2[C@@H]1O[C@H](CO[P@](=O)(O)O[P@](=O)(O)O[P@@](=O)(O)S)[C@@H](O)[C@H]1O` [ATPγS], the IC50 against TM287/288 [1] (IC50, TM287/288, 25°C) was 31.4 ± 2.8 µM; on TM287/288 [1] (IC50, TM287/288, 50°C), 2.86 ± 0.08 µM; against BmrCD it was 221 ± 24 µM. For the same molecule, the Ki on TM287/288 [1] (Ki, TM287/288, 25°C) was 0.204 ± 0.032 µM; on TM287/288 [1] (Ki, TM287/288, 50°C), 0.0439 ± 0.0062 µM; at BmrCD, 26.7 ± 3.3 µM. Moreover, the “rate of hydrolysis of ATPγS relative to that determined for ATP” value in the assay with ABCB1 was 0.4%. In addition, the IF frac in the assay on TM287/288 [2] (setting [6]) was 45.2%; with TM287/288 [2] (setting [7]), 72.9%; in the assay on TM287/288 [2] (setting [8]), 63.7%. Besides, the OF frac with TM287/288 [2] (setting [6]) is 54.8%; in the assay with TM287/288 [2] (setting [7]), 27.1%; in the assay with TM287/288 [2] (setting [8]) it was 36.3%.
Consider `O=C(O)CN(CCN(CC(=O)O)CC(=O)O)CC(=O)O` [EDTA], for which the “ATPase activity in the presence of EDTA” value on TM287/288 [3] (2.5 mM EDTA added to chelate Mg2+, wildtype TM287/288) was “did not observe any detectable ATPase activity”. Further, at TM287/288 [3] (setting [9]), the ATPase activity is below 0.1 nmol Pi/min/mg protein; the “ATPase activity, % of wildtype” value was below 0.005%; the Turnover per transporter was below 0.01 min⁻¹.
Turning to `CCOc1ccc(-c2nc3ccc(-c4nc5ccc(N6CCN(C)CC6)cc5[nH]4)cc3[nH]2)cc1` [Hoechst 33342], in the assay on TM287/288 [4], the “stimulation of ATPase activity” value was “robust ATPase stimulation”.
As for `[Na+].[Na+].[Na+].[O]=[V]([O-])([O-])[O-]` [Vanadate, sodium orthovanadate], the “residual ATPase activity” value at TM287/288 [1] (1 mM vanadate, 50°C, TM287/288) was 8%. The IC50 on TM287/288 [1] (setting [5]) came out at 4.9 ± 0.29 µM. For the same molecule, the inhibition constant Ki on TM287/288 [1] (TM287/288, 50°C, read-out: Ki) was 0.0751 ± 0.0114 µM. For the same molecule, at TM287/288 [1] (setting [10]), the ATPase activity worked out at 165 ± 20 nmol Pi/min/mg protein; the “ATPase activity, % of wildtype” value worked out at 7.71%; the Turnover per transporter is 21.9 min⁻¹. Besides, the “turnover rate, ATP hydrolysis inhibited by vanadate” value at TM287/288 [1] (wildtype TM287/288, vanadate, 50°C) is recorded as 22 ATP min^−1.
